The text below walks through data of patent US20150212068A1, “Cholyl-L-Lysyl-Fluorescein Assay” (Novassay SA, priority 2012, published 2015).

Series [1] in a line: Stability of CLF-spiked serum pools stored 48 hrs at −20° C., 4° C. and 37° C., CLF ELISA. The following applies: for % difference (4° C. from −20° C.) / % difference (37° C. from −20° C.) / observed 4° C. / observed 37° C. / observed −20° C.: serum pool; for observed 4° C.: 48 hrs at 4° C.; for observed 37° C.: 48 hrs at 37° C.; for observed −20° C.: 48 hrs at −20° C. It is filed as in vitro ADME, human. The protocol: These conditions were used for all assays described in Phase 2a (above) and Phase 2b (below). See Appendix B and C for buffer and conjugate formulations respectively: • Add 25 μl/well of sample or standard (0-1000 ng/ml CLF in Buffer #24) to the wells of a streptavidin-coated microtitre plate (NovAssay, F2SAC). • Add 100 μl/well of fluorescein-biotin (Sigma B9431) at 20 ng/ml in Buffer #24+0.2% w/v ANS (Sigma 10417). • Add 100 μl/well of anti-fluorescein HRP (NovAssay, DV047/17-3) at 100 ng/ml in Buffer #24. • Incubate the plate for 30 minutes at room temperature. • Wash the plate 3 times with 800 μl/well Buffer #29 and tap the plate dry. • Add 100 μl/well of SureBlue Reserve TMB Substrate (KPL) and incubate the plate for 10 minutes at room temperature. • Stop the substrate reaction by adding 100 μl/well of 1M HCl and read the absorbance at 450 nm wavelength (ThermoFisher Scientific, Multiskan FC).
The stability study (−20° C., 4° C. and 37° C.) involved preparation of 3 serum pools spiked with 31.25 ng/ml, 125 ng/ml and 250 ng/ml CLF (aliquots of which were then stored at the 3 temperatures). Storage time was 48 hrs.
(In general: An ELISA detects its analyte on a solid surface through an enzyme-linked reagent.)

Series [2] is described as follows: Solubility and stability of CLF in working solutions by HPLC-UV-MS (254 nm). It is filed as physicochemical. The following applies: [CLF] = 50 μg/ml. As for the experimental part:
HPLC separation was operated with a mixture of water and acetonitrile containing 0.1% of formic acid and the reversed phase mode was selected. The injected volume of sample was 20 μl and the “full loop” mode was applied. The temperature of the analytical column was kept at 30° C. CLF, its metabolites and its IS were separated on a SunFire C18 column (5 μm, 2.1×100 mm, Waters) by elution with a linear gradient of acetonitrile in water as described in Table 62.
The wavelength of UV detector was scaled at 254 nm. An ion trap mass spectrometer equipped with electrospray ionization (ESI) interface was operated in positive ionization mode. Detection was carried out in the following modes: • MS mode (full scan) in positive ESI for analysis of working and treatment solutions and metabolites identification, • MS/MS mode (MRM, multiple reaction monitoring) in positive ESI for qualitative analysis of CLF, its IS and its metabolites. Briefly, specific parent ions formed for CLF, its IS and its identified metabolites were selected for MS/MS fragmentations.
Two working solutions of CLF were prepared. The first was prepared in 100% methanol for a final concentration of CLF at 109.6 μg/ml (SS CLF-MetOH) and the second was prepared in aqueous ethanol (water/ethanol/sodium hydroxide (50%), at 1000/500/30, v/v/v) for a final concentration of CLF at 71.6 μg/ml (SS CLF-EtOH).
Working solution used during this study were centrifuged 5 min at 3000 g and then diluted in a methanol/water mixture (50/50, v/v) in order to obtain three homogeneous solutions at 50 μg/ml. Then, 200 μl were transferred into 1.2 ml HPLC glass vials and sealed. Samples were placed into the refrigerated auto-sampler and 20 μl were injected into the HPLC-UV-MS system.
A blank sample was included (methanol/water, 50/50, v/v) to clearly distinguish interferences and impurities. The UV detection (scaled at 254 nm) allowed evaluating the solubility of CLF in both solvents by comparing CLF chromatographic peak areas. In case of signs of instability (additional chromatographic peaks), MS and then MS/MS (if needed) detections allowed to identify the impurities formed.

Marks after values point to notes of the source that are not given here.

As to `CC(CCC(=O)NC(CCCCNC(=S)Nc1ccc(-c2c3ccc(=O)cc-3oc3cc(O)ccc23)c(C(=O)O)c1)C(=O)O)C1CCC2C3C(O)CC4CC(O)CCC4(C)C3CC(O)C12C` [CLF, Cholyl-L-Lysyl-Fluorescein], the “time spiked samples can be stored” value in series [1] (at 4 C., should avoid higher temperatures e.g. 37 C.) is 48 hrs at 4 C. but should avoid higher. For the same compound, the “% difference (4° C. from −20° C.)” value in series [1] (expected 31.25 ng/ml, 48 hrs) is reported as −8%; in series [1] (expected 125 ng/ml, 48 hrs), −2%; in series [1] (expected 250 ng/ml, 48 hrs), −12%. Further, the “% difference (37° C. from −20° C.)” value is −45% in series [1] (expected 31.25 ng/ml, 48 hrs) and −20% in series [1] (expected 125 ng/ml, 48 hrs). Further, the “observed 4° C.” value in series [1] (expected 31.25 ng/ml) stood at 34 ng/mL; in series [1] (expected 125 ng/ml), 107 ng/mL; in series [1] (expected 250 ng/ml), 211 ng/mL. Further, the “observed 37° C.” value in series [1] (expected 31.25 ng/ml) is 20 ng/mL; in series [1] (expected 125 ng/ml) it was 88 ng/mL; in series [1] (expected 250 ng/ml), “>off scale”. Also, the “observed −20° C.” value in series [1] (expected 31.25 ng/ml) was found to be 37 ng/mL; in series [1] (expected 125 ng/ml) it was 110 ng/mL; in series [1] (expected 250 ng/ml) it was 240 ng/mL. Further, in series [1] (serum pools spiked with CLF, 48 hrs, 4° C. vs 37° C. (reference −20° C.)), the “storage stability of spiked samples” value is “can be stored for 48 hrs at 4 °C but should avoid higher temperatures”. The “Peak Area, UV detection (254 nm)” value in series [2] (Aqueous ammonium bicarbonate solution (0.1M), other batch of CLF) was 5305.5*; in series [2] (SS CLF-EtOH working solution), 470.9; in series [2] (SS CLF-MetOH working solution) it was 4395.1. Besides, the “peak area of CLF in aqueous ethanol mixture relative to methanol and aqueous ammonium bicarbonate 0.1 M (fold lower)” value in series [2] (HPLC-UV 254 nm, water/ethanol/sodium hydroxide working solution) is “around 10 fold”.
